Measurements reported in patent US10653681B2, “Analgesic compounds” (Recurium IP Holdings, LLC, priority 2016, dated 2020).

Tested on: male ICR mice
Test: Formalin paw test
Assay type: in vivo, mouse
Conditions: for Early Phase: early/acute phase (0-10 minutes) after 2% formalin into hind paw; for Late Phase: late/tonic phase (10-35 minutes) after 2% formalin into hind paw
Experimental: One test compound or the vehicle was administered to each mouse in each test group (8 mice per group). Non-fasted male ICR mice weighing 23±3 g were used. Test compounds were administered at a concentration of 30 mg/kg, 100 mg/kg or 200 mg/kg; morphine was administered at a concentration of 10 mg/kg; and acetaminophen was administered at a concentration of >100 mg/kg. The control group received the vehicle (5% DMSO/15% PEG400/10% HPbCD/0.9% Saline). After 10 minutes, a 2% formalin solution (0.02 mL) was injected into one hind paw (sub-plantar) of each mouse. Responses were measured every 5 minutes after the formalin injection for 35 minutes.
The results in Table A are for oral administration; the results in Table B are for intraperitoneal administration; the results in Table C are for intravenous administration. In Tables A, B, and C, ‘A’ designates <70 licks/sec, ‘B’ designates ≥70 licks/sec and <165 licks/sec, and ‘C’ designates ≥165 licks/sec.

[1] = intraperitoneal administration, 30 mg/kg
[2] = intravenous administration, 100 mg/kg

SMILES	Early Phase [1]	Late Phase [1]	further results
Cc1coc(N)n1 [Compound 1]	B (‘B’ designates ≥70 licks/sec and <165 licks/sec)	C (‘C’ designates ≥165 licks/sec)	–
Nc1nnc(C(F)(F)F)o1 [Compound 2]	B (‘B’ designates ≥70 licks/sec and <165 licks/sec)	C (‘C’ designates ≥165 licks/sec)	–
CC(C)(C)c1nnc(CN)s1 [Compound 3]	A (‘A’ designates <70 licks/sec)	B (‘B’ designates ≥70 licks/sec and <165 licks/sec)	–
CC(C)(C)c1nnc(N)s1 [Compound 4]	B (‘B’ designates ≥70 licks/sec and <165 licks/sec)	C (‘C’ designates ≥165 licks/sec)	–
Nc1nnc(C(F)(F)F)s1 [Compound 5]	B (‘B’ designates ≥70 licks/sec and <165 licks/sec)	C (‘C’ designates ≥165 licks/sec)	–
CC(C)(C)c1nnc(N)o1 [Compound 6]	B (‘B’ designates ≥70 licks/sec and <165 licks/sec)	C (‘C’ designates ≥165 licks/sec)	–
CC(C)(C)c1csc(CN)n1 [Compound 7]	B (‘B’ designates ≥70 licks/sec and <165 licks/sec)	A (‘A’ designates <70 licks/sec)	–
NCc1nc(C(F)(F)F)cs1 [Compound 8]	A (‘A’ designates <70 licks/sec)	A (‘A’ designates <70 licks/sec)	–
NCCc1nc(C(F)(F)F)cs1 [Compound 9]	A (‘A’ designates <70 licks/sec)	A (‘A’ designates <70 licks/sec)	–
CC(C)(C)c1csc(N)n1 [Compound 10]	A (‘A’ designates <70 licks/sec)	A (‘A’ designates <70 licks/sec)	–
Cc1ncc(CN)s1 [Compound 13]	B (‘B’ designates ≥70 licks/sec and <165 licks/sec)	C (‘C’ designates ≥165 licks/sec)	–
Cc1nc(CN)cs1 [Compound 14]	B (‘B’ designates ≥70 licks/sec and <165 licks/sec)	C (‘C’ designates ≥165 licks/sec)	–
CCn1cc(CN)cn1 [Compound 15]	B (‘B’ designates ≥70 licks/sec and <165 licks/sec)	A (‘A’ designates <70 licks/sec)	–
Cc1nc(N)oc1C [Compound 16]	A (‘A’ designates <70 licks/sec)	A (‘A’ designates <70 licks/sec)	–
Cc1cc(CN)nn1C [Compound 17]	B (‘B’ designates ≥70 licks/sec and <165 licks/sec)	B (‘B’ designates ≥70 licks/sec and <165 licks/sec)	–
NCc1ccc(C(F)(F)F)cc1 [Compound 18]	B (‘B’ designates ≥70 licks/sec and <165 licks/sec)	C (‘C’ designates ≥165 licks/sec)	–
CC(C)(C)c1nccc(N)n1 [Compound 19]	B (‘B’ designates ≥70 licks/sec and <165 licks/sec)	C (‘C’ designates ≥165 licks/sec)	–
Nc1nccc(C(F)(F)F)n1 [Compound 20]	B (‘B’ designates ≥70 licks/sec and <165 licks/sec)	C (‘C’ designates ≥165 licks/sec)	–
Nc1cccc(C(F)(F)F)n1 [Compound 21]	B (‘B’ designates ≥70 licks/sec and <165 licks/sec)	C (‘C’ designates ≥165 licks/sec)	–
Nc1ncc(C(F)(F)F)cn1 [Compound 22]	B (‘B’ designates ≥70 licks/sec and <165 licks/sec)	C (‘C’ designates ≥165 licks/sec)	–
NCc1cccc(C(F)(F)F)n1 [Compound 24]	B (‘B’ designates ≥70 licks/sec and <165 licks/sec)	C (‘C’ designates ≥165 licks/sec)	–
NCCc1ccc(C(F)(F)F)cc1 [Compound 25]	A (‘A’ designates <70 licks/sec)	B (‘B’ designates ≥70 licks/sec and <165 licks/sec)	–
CC(C)(C)C(=O)Nc1ccc(O)cc1 [Compound 26]	–	–	Early Phase (oral administration, 200 mg/kg): B (‘B’ designates ≥70 licks/sec and <165 licks/sec); Late Phase (oral administration, 200 mg/kg): B (‘B’ designates ≥70 licks/sec and <165 licks/sec)
CC(=O)NCc1ccc(C(F)(F)F)cc1 [Compound 27]	–	–	Early Phase [2]: A (‘A’ designates <70 licks/sec); Late Phase [2]: A (‘A’ designates <70 licks/sec)
CC(=O)Nc1ccc(C(C)(C)C)cc1 [Compound 28]	–	–	Early Phase (oral administration, 200 mg/kg): B (‘B’ designates ≥70 licks/sec and <165 licks/sec); Late Phase (oral administration, 200 mg/kg): B (‘B’ designates ≥70 licks/sec and <165 licks/sec)
CC(=O)Nc1ccc(C(F)(F)F)cc1 [Compound 29]	–	–	Early Phase (oral administration, 200 mg/kg): A (‘A’ designates <70 licks/sec); Late Phase (oral administration, 200 mg/kg): A (‘A’ designates <70 licks/sec)
